The values below come from US11427548B2 (Arvinas Operations, Inc., priority 2015, dated 2022).

Read-outs that look alike come from different tables or passages of the source.

This assay has as its target T1, Androgen Receptor (Homo sapiens, UniProt P10275).
T1 construct: endogenous in cells; host or cells: VCaP cells
T1 sequence (P10275 1-920): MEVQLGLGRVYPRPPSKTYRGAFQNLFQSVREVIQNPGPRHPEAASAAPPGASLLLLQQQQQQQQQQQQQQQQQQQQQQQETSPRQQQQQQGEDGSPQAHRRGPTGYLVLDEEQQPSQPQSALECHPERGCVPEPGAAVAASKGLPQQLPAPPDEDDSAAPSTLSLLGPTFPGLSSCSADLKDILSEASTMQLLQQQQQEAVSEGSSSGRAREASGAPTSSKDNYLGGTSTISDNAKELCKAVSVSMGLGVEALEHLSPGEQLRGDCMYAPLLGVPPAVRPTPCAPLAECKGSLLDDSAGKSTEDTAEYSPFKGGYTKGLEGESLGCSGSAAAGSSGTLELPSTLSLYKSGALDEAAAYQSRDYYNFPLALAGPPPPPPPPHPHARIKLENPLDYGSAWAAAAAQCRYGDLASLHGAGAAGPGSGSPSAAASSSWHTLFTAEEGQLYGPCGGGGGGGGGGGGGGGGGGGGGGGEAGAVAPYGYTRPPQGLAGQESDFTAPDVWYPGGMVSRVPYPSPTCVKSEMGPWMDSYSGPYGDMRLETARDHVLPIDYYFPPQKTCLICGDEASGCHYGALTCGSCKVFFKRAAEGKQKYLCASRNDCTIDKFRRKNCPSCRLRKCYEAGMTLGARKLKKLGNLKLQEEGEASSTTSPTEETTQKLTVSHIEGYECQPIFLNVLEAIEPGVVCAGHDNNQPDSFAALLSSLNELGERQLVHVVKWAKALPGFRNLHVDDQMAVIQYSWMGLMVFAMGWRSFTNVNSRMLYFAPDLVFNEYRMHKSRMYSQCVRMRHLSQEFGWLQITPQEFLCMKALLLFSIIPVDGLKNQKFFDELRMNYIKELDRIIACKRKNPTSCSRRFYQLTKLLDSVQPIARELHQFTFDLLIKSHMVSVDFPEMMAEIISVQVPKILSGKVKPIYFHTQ
As to the kind of experiment: Androgen Receptor ELISA assay (PathScan AR ELISA) in VCaP cells: AR degradation, Dmax and DC50. Type of assay: cell-based. The gist of the method: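 VCaP cells, 30,000/well, grown ≥3 days in phenol red-free RPMI with 5% charcoal-stripped FBS; compound added in 0.1% DMSO with 0.1 nM R1881, 7 half-log doses, 24 h. Lysate AR quantified by PathScan sandwich ELISA, HRP/TMB read at 450 nm, giving DC50 and Dmax.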

Setting [1] is: VCaP cells; Table 36; read-out: VCaP DC50.
Where [2] appears, read: VCaP, read-out: VCaP Dmax (%), VCaP cells; Table 36.
[3] abbreviates: VCaP, VCaP cells; Table 36; read-out: VCaP Dmax (%).

In the case of `Cc1ncsc1-c1ccc([C@H](C)NC(=O)[C@@H]2C[C@@H](O)CN2C(=O)[C@@H](NC(=O)[C@H](C)OCCN2CCN(c3ccc(C(=O)N[C@H]4C(C)(C)[C@H](Oc5ccc(C#N)c(Cl)c5)C4(C)C)cc3)CC2)C(C)(C)C)cc1` [Example 664, (2S,4R)-1-((S)-2-((S)-2-(2-(4-(4-(((1r,3r)-3-(3-chloro-4-cyanophenoxy)-2,2,4,4-tetramethylcyclobutyl)carbamoyl)phenyl)piper-azin-1-yl)ethoxy)propanamido)-3,3-dimethylbutanoyl)-4-hydroxy-N-((S)-1-(4-(4-methylthiazol-5-yl)phenyl)ethyl)pyrrolidine-2-carboxamide], under setting [1], the half-maximal degradation concentration (DC50) was less than 50 nM. Also, under setting [2], the Dmax fell in the range of 51 to 70%.

As for `Cc1ncsc1-c1ccc([C@H](C)NC(=O)[C@@H]2C[C@@H](O)CN2C(=O)[C@@H](NC(=O)CN2CCN(CCCc3ccc(C(=O)N[C@H]4C(C)(C)[C@H](Oc5ccc(C#N)c(C(F)(F)F)c5)C4(C)C)cc3)CC2)C(C)(C)C)cc1` [Example 665, (2S,4R)-1-((S)-2-(2-(4-(3-(4-(((1r,3r)-3-(4-cyano-3-(trifluoromethyl)phenoxy)-2,2,4,4-tetramethylcyclobutyl)carbamoyl)phenyl)propyl)piperazin-1-yl)acetamido)-3,3-dimethylbutanoyl)-4-hydroxy-N-((S)-1-(4-(4-methylthiazol-5-yl)phenyl)ethyl)pyrrolidine-2-carboxamide], under setting [1], the half-maximal degradation concentration (DC50) was less than 50 nM. For the same molecule, the Dmax under setting [3] was 51 to 70%.

Take `Cc1ncsc1-c1ccc([C@H](C)NC(=O)[C@@H]2C[C@@H](O)CN2C(=O)[C@@H](NC(=O)COCCCCCNC23CC(C(=O)N[C@H]4C(C)(C)[C@H](Oc5ccc(C#N)c(Cl)c5)C4(C)C)(C2)C3)C(C)(C)C)cc1` [Example 666, (2S,4R)-1-((S)-2-(2-((5-((3-(((1r,3r)-3-(3-chloro-4-cyanophenoxy)-2,2,4,4-tetramethylcyclobutyl)carbamoyl)bicyclo[1.1.1]pentan-1-yl)amino)pentyl)oxy)acetamido)-3,3-dimethylbutanoyl)-4-hydroxy-N-((S)-1-(4-(4-methylthiazol-5-yl)phenyl)ethyl)pyrrolidine-2-carboxamide]: the DC50 under setting [1] is more than 501 nM. Besides, the greatest degradation seen (Dmax) under setting [3] lay within 26 to 50%.

Turning to `Cc1ncsc1-c1ccc([C@H](C)NC(=O)[C@@H]2C[C@@H](O)CN2C(=O)[C@@H](NC(=O)CN2CCO[C@@H](CN3CCO[C@@H](COc4ccc(N5C(=S)N(c6ccc(C#N)c(C(F)(F)F)c6)C(=O)C5(C)C)cc4)C3)C2)C(C)(C)C)cc1` [Example 667, (2S,4R)-1-((S)-2-(2-((S)-2-(((R)-2-((4-(3-(4-cyano-3-(trifluoromethyl)phenyl)-5,5-dimethyl-4-oxo-2-thioxoimidazolidin-1-yl)phenoxy)methyl)mor-pholino)methyl)mor-pholino)acetamido)-3,3-dimethylbutanoyl)-4-hydroxy-N-((S)-1-(4-(4-methylthiazol-5-yl)phenyl)ethyl)pyrrolidine-2-carboxamide], the Dmax (VCaP, read-out: VCaP Dmax (%)) was less than 25%. Moreover, for the setting “read-out: VCaP DC50; VCaP cells; Table 36”, the DC50 was more than 501 nM.

With `CC(NC(=O)C1CC(O)CN1C(=O)C(NC(=O)COCCN1CC2CC1CN2c1ccc(C(=O)NC2C(C)(C)C(Oc3ccc(C#N)c(Cl)c3)C2(C)C)cn1)C(C)(C)C)c1ccc(-c2scnc2CO)cc1` [Example 668, N-((1r,3R)-3-(3-chloro-4-cyanophenoxy)-2,2,4,4-tetramethylcyclobutyl)-6-((1R,4R)-5-(2-(2-(((S)-1-((2S,4R)-4-hydroxy-2-(((S)-1-(4-(4-(hydroxymethyl)thiazol-5-yl)phenyl)ethyl)carbam-oyl)pyrrolidin-1-yl)-3,3-dimethyl-1-oxobutan-2-yl)amino)-2-oxoethoxy)ethyl)-2,5-diazabicyclo[2.2.1]hept-an-2-yl)nicotinamide], under setting [1], the DC50 was 51 to 500 nM. Besides, the Dmax under setting [2] was 26 to 50%.

For the molecule `Cc1ncsc1-c1ccc(CNC(=O)[C@@H]2C[C@@H](O)CN2C(=O)[C@@H](NC(=O)COCCN2C[C@H]3C[C@@H]2CN3c2ccc(C(=O)N[C@H]3C(C)(C)[C@H](Oc4ccc(C#N)c(Cl)c4)C3(C)C)cn2)C(C)(C)C)cc1` [Example 669, N-((1r,3R)-3-(3-chloro-4-cyanophenoxy)-2,2,4,4-tetramethylcyclobutyl)-6-((1R,4R)-5-(2-(2-(((S)-1-((2S,4R)-4-hydroxy-2-((4-(4-methylthiazol-5-yl)benzyl)carbamoyl)pyrrolidin-1-yl)-3,3-dimethyl-1-oxobutan-2-yl)amino)-2-oxoethoxy)ethyl)-2,5-diazabicyclo[2.2.1]hept-an-2-yl)nicotinamide], the DC50 under setting [1] was less than 50 nM. For the same molecule, under setting [3], the Dmax was 51 to 70%.

On to `Cc1ncsc1-c1ccc([C@H](C)NC(=O)[C@@H]2C[C@@H](O)CN2C(=O)[C@@H](NC(=O)COCCCCCNc2ccc(C(=O)N[C@H]3C(C)(C)[C@H](Oc4ccc(C#N)c(Cl)c4)C3(C)C)nc2)C(C)C)cc1` [Example 670, N-((1r,3r)-3-(3-chloro-4-cyanophenoxy)-2,2,4,4-tetramethylcyclobutyl)-5-((5-(2-(((S)-1-((2S,4R)-4-hydroxy-2-(((S)-1-(4-(4-methylthiaozl-5-yl)phenyl)ethyl)carbam-oyl)pyrrolidin-1-yl)-3-methyl-1-oxobutan-2-yl)amino)-2-oxoethoxy)pentyl)amino) picolinamide], for which, under setting [1], the DC50 was more than 501 nM. Besides, the maximal degradation (Dmax) under setting [3] is less than 25%.

As to `Cc1ncsc1-c1ccc(C(CO)NC(=O)C2C[C@@H](O)CN2C(=O)[C@@H](NC(=O)COCCN2CCN(c3ccc(C(=O)N[C@H]4C(C)(C)[C@H](Oc5ccc(C#N)c(Cl)c5)C4(C)C)cn3)CC2)C(C)(C)C)cc1` (stereo partly drawn) [Example 671, N-((1r,3r)-3-(3-chloro-4-cyanophenoxy)-2,2,4,4-tetramethylcyclobutyl)-6-(4-(2-(2-(((S)-1-((2S,4R)-4-hydroxy-2-((2-hydroxy-1-(4-(4-methylthiazol-5-yl)phenyl)ethyl)carbam-oyl)pyrrolidin-1-yl)-3,3-dimethyl-1-oxobutan-2-yl)amino)-2-oxoethoxy)ethyl)pipera-zin-1-yl)nicotinamide], the DC50 under setting [1] is less than 50 nM. In addition, under setting [3], the Dmax was more than 71%.

For `Cc1ncsc1-c1ccc(CNC(=O)[C@@H]2C[C@@H](O)CN2C(=O)[C@@H](NC(=O)CN2CCC3(CC2)CCN(c2ccc(C(=O)N[C@H]4C(C)(C)[C@H](Oc5ccc(C#N)c(Cl)c5)C4(C)C)cn2)CC3)C(C)(C)C)cc1` [Example 672, N-((1r,3r)-3-(3-chloro-4-cyanophenoxy)-2,2,4,4-tetramethylcyclobutyl)-6-(9-(2-(((S)-1-((2S,4R)-4-hydroxy-2-((4-(4-methylthiazol-5-yl)benzyl)carbamoyl)pyr-rolidin-1-yl)-3,3-dimethyl-1-oxobutan-2-yl)amino)-2-oxoethyl)-3,9-diazaspiro[5.5]undecan-3-yl)nicotinamide], the DC50 under setting [1] is less than 50 nM. Also, the Dmax under setting [3] lay within 51 to 70%.

For the molecule `C[C@H](NC(=O)[C@@H]1C[C@@H](O)CN1C(=O)[C@@H](NC(=O)COCCN1CCN(c2ccc(C(=O)N[C@H]3C(C)(C)[C@H](Oc4ccc(C#N)c(Cl)c4)C3(C)C)cn2)CC1)C(C)(C)C)c1ccc(-c2scnc2CO)cc1` [Example 673, N-((1r,3r)-3-(3-chloro-4-cyanophenoxy)-2,2,4,4-tetramethylcyclobutyl)-6-(4-(2-(2-(((S)-1-((2S,4R)-4-hydroxy-2-(((S)-1-(4-(4-(hydroxymethyl)thiazol-5-yl)phenyl)ethyl)carbam-oyl)pyrrolidin-1-yl)-3,3-dimethyl-1-oxobutan-2-yl)amino)-2-oxoethoxy)ethyl)pipera-zin-1-yl)nicotinamide], the DC50 under setting [1] was less than 50 nM. Also, the maximal degradation (Dmax) under setting [3] is more than 71%.

For the molecule `Cc1ncsc1-c1ccc([C@H](C)NC(=O)C2C[C@@H](O)CN2C(=O)[C@@H](NC(=O)CN2CCN(CCC3(c4ccc(C(=O)N[C@H]5C(C)(C)[C@H](Oc6ccc(C#N)c(C(F)(F)F)c6)C5(C)C)cc4)COC3)CC2)C(C)(C)C)cc1` (stereo partly drawn) [Example 674, (2S,4R)-1-((S)-2-(2-(4-(2-(3-(4-(((1r,3r)-3-(4-cyano-3-(trifluoromethyl)phenoxy)-2,2,4,4-tetramethylcyclobutyl)carbamoyl)phenyl)oxetan-3-yl)ethyl)piperazin-1-yl)acetamido)-3,3-dimethylbutanoyl)-4-hydroxy-N-((S)-1-(4-(4-methylthiazol-5-yl)phenyl)ethyl)pyrrolidine-2-carboxamide], the DC50 under setting [1] is less than 50 nM. For the same molecule, under “VCaP, read-out: VCaP Dmax (%)”, the Dmax was in the range of 51 to 70%.

One may read the DC50 as the concentration at which degradation of the target reaches its halfway point. The Dmax is the largest share of the target that was removed.
